Measurements from PubChem BioAssay AID1259407 (Chemical Carcinogenesis Research Information System (CCRIS), 2018).
Active and inactive are the calls of the source. The rule behind the calls is not given here.

System: CCRIS mutagenicity, Ames/micronucleus/aberration tests
Assay: CCRIS mutagenicity studies
[1] = Test System: AMES SALMONELLA TYPHIMURIUM, Strain/Indicator: TA98, Metabolic Activation: HAMSTER, LIVER, S-9, AROCLOR 1254, Method: PREINCUBATION
[2] = Test System: AMES SALMONELLA TYPHIMURIUM, Strain/Indicator: TA98, Metabolic Activation: NONE, Method: PREINCUBATION
[3] = Test System: AMES SALMONELLA TYPHIMURIUM, Strain/Indicator: TA98, Metabolic Activation: RAT, LIVER, S-9, AROCLOR 1254, Method: PREINCUBATION
[4] = Test System: AMES SALMONELLA TYPHIMURIUM, Strain/Indicator: TA100, Metabolic Activation: HAMSTER, LIVER, S-9, AROCLOR 1254, Method: PREINCUBATION
[5] = Test System: AMES SALMONELLA TYPHIMURIUM, Strain/Indicator: TA100, Metabolic Activation: NONE, Method: PREINCUBATION
[6] = Test System: AMES SALMONELLA TYPHIMURIUM, Strain/Indicator: TA100, Metabolic Activation: RAT, LIVER, S-9, AROCLOR 1254, Method: PREINCUBATION
[7] = Test System: AMES SALMONELLA TYPHIMURIUM, Strain/Indicator: TA1535, Metabolic Activation: NONE, Method: PREINCUBATION

SMILES: O=[N+]([O-])c1ccc(Nc2ccc(Nc3ccccc3)c(S(=O)(=O)O)c2)c([N+](=O)[O-])c1
- mutagenic call (Test System: AMES SALMONELLA TYPHIMURIUM, Strain/Indicator: TA97, Metabolic Activation: HAMSTER, LIVER, S-9, AROCLOR 1254, Method: PREINCUBATION): active; positive
- mutagenic call (Test System: AMES SALMONELLA TYPHIMURIUM, Strain/Indicator: TA97, Metabolic Activation: NONE, Method: PREINCUBATION): active; positive
- mutagenic call (Test System: AMES SALMONELLA TYPHIMURIUM, Strain/Indicator: TA97, Metabolic Activation: RAT, LIVER, S-9, AROCLOR 1254, Method: PREINCUBATION): active; positive
- mutagenic call [1]: active; positive
- mutagenic call [2]: active; positive
- mutagenic call [3]: active; positive
- mutagenic call [4]: active; positive
- mutagenic call [5]: active; positive
- mutagenic call [6]: active; positive
- mutagenic call (Test System: AMES SALMONELLA TYPHIMURIUM, Strain/Indicator: TA1535, Metabolic Activation: HAMSTER, LIVER, S-9, AROCLOR 1254, Method: PREINCUBATION): inactive; negative
- mutagenic call [7]: inactive; negative
- mutagenic call (Test System: AMES SALMONELLA TYPHIMURIUM, Strain/Indicator: TA1535, Metabolic Activation: RAT, LIVER, S-9, AROCLOR 1254, Method: PREINCUBATION): inactive; negative

SMILES: [Cl][V]([Cl])[Cl]
- mutagenic call [2]: inactive; negative
- mutagenic call (Test System: AMES SALMONELLA TYPHIMURIUM, Strain/Indicator: TA98, Metabolic Activation: RAT LIVER S-9, PHENOBARBITAL AND BETA-NAPHTHOFLAVONE, Method: PREINCUBATION): inactive; negative
- mutagenic call [5]: inactive; negative
- mutagenic call (Test System: AMES SALMONELLA TYPHIMURIUM, Strain/Indicator: TA100, Metabolic Activation: RAT LIVER S-9, PHENOBARBITAL AND BETA-NAPHTHOFLAVONE, Method: PREINCUBATION): inactive; negative
- mutagenic call [7]: inactive; negative
- mutagenic call (Test System: AMES SALMONELLA TYPHIMURIUM, Strain/Indicator: TA1535, Metabolic Activation: RAT LIVER S-9, PHENOBARBITAL AND BETA-NAPHTHOFLAVONE, Method: PREINCUBATION): inactive; negative
- mutagenic call (Test System: AMES SALMONELLA TYPHIMURIUM, Strain/Indicator: TA1537, Metabolic Activation: NONE, Method: PREINCUBATION): inactive; negative
- mutagenic call (Test System: AMES SALMONELLA TYPHIMURIUM, Strain/Indicator: TA1537, Metabolic Activation: RAT LIVER S-9, PHENOBARBITAL AND BETA-NAPHTHOFLAVONE, Method: PREINCUBATION): inactive; negative
- mutagenic call (Test System: AMES SALMONELLA TYPHIMURIUM, Strain/Indicator: TA1538, Metabolic Activation: NONE, Method: PREINCUBATION): inactive; negative
- mutagenic call (Test System: AMES SALMONELLA TYPHIMURIUM, Strain/Indicator: TA1538, Metabolic Activation: RAT LIVER S-9, PHENOBARBITAL AND BETA-NAPHTHOFLAVONE, Method: PREINCUBATION): inactive; negative
- mutagenic call (Test System: E.COLI, Strain/Indicator: WP2UVRA, Metabolic Activation: NONE, Method: PREINCUBATION): inactive; negative
- mutagenic call (Test System: E.COLI, Strain/Indicator: WP2UVRA, Metabolic Activation: RAT LIVER S-9, PHENOBARBITAL AND BETA-NAPHTHOFLAVONE, Method: PREINCUBATION): inactive; negative

SMILES: C1CS1
- mutagenic call [1]: inactive; negative
- mutagenic call [2]: inactive; negative
- mutagenic call [3]: inactive; negative
- mutagenic call [4]: active; positive
- mutagenic call [5]: active; positive
- mutagenic call [6]: active; positive
- mutagenic call (Test System: MOUSE LYMPHOMA, Strain/Indicator: L5178Y (TK+/TK-), Metabolic Activation: NONE, Method: SUSPENSION/PLATE): active; positive. reevaluation of results: positive
- mutagenic call (Test System: MOUSE LYMPHOMA, Strain/Indicator: L5178Y (TK+/TK-), Metabolic Activation: RAT, LIVER, S-9, AROCLOR 1254, Method: SUSPENSION/PLATE): active; positive. reevaluation of results: positive

SMILES: CN(C)C(=O)/C=C/c1ccc([N+](=O)[O-])o1
- mutagenic call [2]: active; positive

SMILES: NC(=O)Nc1cccc2cccnc12
- mutagenic call (Test System: AMES SALMONELLA TYPHIMURIUM, Strain/Indicator: TA100, Metabolic Activation: S-9, Method: PREINCUBATION): inactive; negative

SMILES: N#C/C(=C/C=C/c1ccccc1)c1ccccc1Cl
- mutagenic call (Test System: AMES SALMONELLA TYPHIMURIUM, Strain/Indicator: TA100, Metabolic Activation: NONE, Method: STANDARD PLATE): active; positive

SMILES: O=C1C=C2c3cc4ccccc4cc3-c3cccc(c32)C1=O
- mutagenic call (Test System: AMES SALMONELLA TYPHIMURIUM, Strain/Indicator: TA100, Metabolic Activation: RAT, LIVER, S-9, AROCLOR 1254, Method: STANDARD PLATE): active; positive

SMILES: NNc1ccc(C(=O)O)cc1
- mutagenic call (Test System: AMES SALMONELLA TYPHIMURIUM, Strain/Indicator: TA104, Metabolic Activation: MUSHROOM TYROSINASE, Method: PREINCUBATION): inactive; negative
- mutagenic call (Test System: AMES SALMONELLA TYPHIMURIUM, Strain/Indicator: TA104, Metabolic Activation: NONE, Method: PREINCUBATION): inactive; negative
- mutagenic call (Test System: AMES SALMONELLA TYPHIMURIUM, Strain/Indicator: TA104, Metabolic Activation: RAT, LIVER, CYTOSOL, AROCLOR 1254, NADPH, Method: PREINCUBATION): inactive; negative

SMILES: Nc1c(N=Nc2ccc(S(=O)(=O)CCOS(=O)(=O)O)cc2)c(S(=O)(=O)O)cc2cc(S(=O)(=O)O)c(N=Nc3ccc(S(=O)(=O)CCOS(=O)(=O)O)cc3)c(O)c12
- mutagenic call (Test System: Ames Salmonella typhimurium, Strain/Indicator: TA98, Metabolic Activation: None, Method: Preincubation): inactive; negative
- mutagenic call (Test System: Ames Salmonella typhimurium, Strain/Indicator: TA98, Metabolic Activation: Rat, Liver, S-9, Aroclor 1254, Method: Preincubation): inactive; negative
- mutagenic call (Test System: Ames Salmonella typhimurium, Strain/Indicator: TA100, Metabolic Activation: None, Method: Preincubation): inactive; negative
- mutagenic call (Test System: Ames Salmonella typhimurium, Strain/Indicator: TA100, Metabolic Activation: Rat, Liver, S-9, Aroclor 1254, Method: Preincubation): inactive; negative
- mutagenic call (Test System: Ames Salmonella typhimurium, Strain/Indicator: TA102, Metabolic Activation: None, Method: Preincubation): inactive; negative
- mutagenic call (Test System: Ames Salmonella typhimurium, Strain/Indicator: TA102, Metabolic Activation: Rat, Liver, S-9, Aroclor 1254, Method: Preincubation): inactive; negative
- mutagenic call (Test System: Ames Salmonella typhimurium, Strain/Indicator: TA1535, Metabolic Activation: None, Method: Preincubation): inactive; negative
- mutagenic call (Test System: Ames Salmonella typhimurium, Strain/Indicator: TA1535, Metabolic Activation: Rat, Liver, S-9, Aroclor 1254, Method: Preincubation): inactive; negative

SMILES: C[C@]12CC[C@H](O)CC1=CC[C@@H]1[C@@H]2CC[C@]2(C)C(=O)CC[C@@H]12
- mutagenic call (Test System: AMES SALMONELLA TYPHIMURIUM, Strain/Indicator: TA102, Metabolic Activation: RAT LIVER S-9, PHENOBARBITAL AND 5,6-BENZOFLAVONE, Method: STANDARD PLATE): inactive; negative
- mutagenic call (Test System: AMES SALMONELLA TYPHIMURIUM, Strain/Indicator: TA2638, Metabolic Activation: RAT LIVER S-9, PHENOBARBITAL AND 5,6-BENZOFLAVONE, Method: STANDARD PLATE): inactive; negative
- mutagenic call (Test System: E. COLI, Strain/Indicator: WP2 (PKM101), Metabolic Activation: RAT LIVER S-9, PHENOBARBITAL AND 5,6-BENZOFLAVONE, Method: STANDARD PLATE): inactive; negative
- mutagenic call (Test System: E. COLI, Strain/Indicator: WP2 UVRA (PKM101), Metabolic Activation: RAT LIVER S-9, PHENOBARBITAL AND 5,6-BENZOFLAVONE, Method: STANDARD PLATE): inactive; negative
- mutagenic call (Test System: UDS RAT HEPATOCYTES, Strain/Indicator: THY INCORP (18-20 HR), Metabolic Activation: NONE, Method: LIQUID SCINTILLATION COUNTING): inactive; negative

SMILES: c1ccc2c(c1)-c1c(c3ccccc3c3ccccc13)C1NC21 (stereo unspecified)
- mutagenic call (Test System: AMES SALMONELLA TYPHIMURIUM, Strain/Indicator: TA98, Metabolic Activation: NONE, Method: PREINCUBATION (KCL-CONTAINING MEDIUM)): active; positive
- mutagenic call (Test System: AMES SALMONELLA TYPHIMURIUM, Strain/Indicator: TA98, Metabolic Activation: NONE, Method: PREINCUBATION (KCL-FREE MEDIUM)): active; positive
- mutagenic call (Test System: AMES SALMONELLA TYPHIMURIUM, Strain/Indicator: TA100, Metabolic Activation: NONE, Method: PREINCUBATION (KCL-CONTAINING OR KCL-FREE MEDIA)): active; positive

SMILES: C[As](C)O
- mutagenic call (End Point: IN VITRO CHROMOSOMAL ABERRATIONS, Test System: CHINESE HAMSTER V79 CELLS, Metabolic Activation: NONE): active; positive (structural and ploidy changes)
